Key:
MCF7 xenograft tumors = experiment: MCF7 xenograft tumor study after estrogen pellet removal; assay type: in vivo, mice
Method: Xenograft tumor analysis: Estrogen-stimulated MCF7 tumors were initiated in the axial mammary gland of 6-week old estrogen-treated (0.72 mg/60 days pellet sc, Innovative Research of America) ovariectomized female NU/NU mice (in-house colony) by serial transfer and were measured as described (Wardell et al., (2013) Clin Cancer Res 19 (9):2420-2431). […] FIG. 9: At ˜0.1 cm^3 tumor volume, the estrogen pellet was surgically removed, and mice were randomized (n=6-10) to daily treatment with vehicle or RAD1901 (0.3-10 mg/kg). Treatments were formulated as above. Animal tissues were processed and analyzed as described (Wardell et al., (2013) Clin Cancer Res 19 (9):2420-2431).
As shown above, high dose RAD1901 (20 mg/kg) inhibited the growth of ESR1-dependent MCF7-cell derived tumors in mice. However, the observation that uterine wet weight was increased in mice treated with doses of RAD1901 that were lower than that required to effect ESR1 turnover highlighted the need to examine whether a similar biphasic pharmacology was manifest in breast tumors. To further evaluate the pharmacology of RAD1901, a second xenograft tumor study was conducted in which MCF7 tumors were established under estrogen stimulation. For FIG. 9A, MCF7 xenograft tumors were initiated in ovariectomized female nu/nu mice as in FIG. 5. Estrogen pellets were surgically removed when tumors reached ˜0.1 cm^3 volume, and animals (n=6-10) then received daily treatment with vehicle or RAD1901 (RAD), (0.3-10 mg/kg sc). Mean tumor volume+/−SEM per day of treatment was presented. Significance as compared to the vehicle (2-way ANOVA of matched values followed by Bonferroni comparison) was indicated (*p<0.05, **p<0.0005). For FIG. 9B, uterine wet weight at sacrifice (measured as in FIG. 8) and % change in tumor volume (as compared to size at randomization) calculated using the final measurement recorded for mice in (FIG. 9A) are graphically presented. For FIGS. 9C-9D, expression of ESR1 target genes in tumors was analyzed essentially as in FIG. 5. Estrogen only samples from FIG. 5D were included for comparison. For FIG. 9E, ESR1 levels in tumor tissues were analyzed as in FIG. 8 and were normalized to similarly detected Lamin-A. Significant downregulation (*p<0.05) was determined by ANOVA followed by Bonferroni comparison.

ESR1 target genes = experiment: ESR1 target gene expression profile in MCF7 cells; assay type: cell-based; conditions: 24 hours
Method: A recent extensive microarray analysis has identified “sentinel” subsets of ER-responsive genes that can differentiate between ER agonists, SERMs and SERDs. […] MCF7 breast cancer cells were treated 24 hours with RAD1901 (0-1 μM) in the presence or absence of 17β-estradiol (1 nM). RNA isolation and the analysis of the expression of target genes Anterior gradient protein 2 (AGR2) and KCNK6 was conducted as in Example 3.
The expression of ESR1 target genes responsive to (FIG. 10A) agonists, (FIG. 10B) primarily SERMs, or (FIG. 10C) SERMs and agonists was analyzed as in FIG. 5. […] Significant target gene regulation (*p<0.05) as compared to the vehicle control was detected by 2 way ANOVA followed by Fisher's LSD (Graphpad Prism 6). […] Interaction of ESR1 with the Gal4DBD peptide constructs was detected through activation of a Gal4-responsive luciferase reporter construct and was normalized to detected β-galactosidase activity expressed in a constitutive manner using a second vector. Normalized response was expressed as fold increase over the detected level of interaction between Gal4DBD alone and ESR1-VP16 in the absence of ligand (Veh). For FIG. 10E, the effect of SERMs and SERDs (10^−6 M) on the proliferation of MCF7 cells in response to E2 (10^−9 M) or insulin (2×10^−9 M) was evaluated as in FIG. 5. […]

CCNCCc1ccc(CN(CC)c2cc(OC)ccc2[C@@H]2CCc3cc(O)ccc3C2)cc1 [RAD1901, (R)-6-{2-{ethyl[4-(2-ethylaminoethyl)benzyl]amino}-4-methoxyphenyl}-5,6,7,8-tetrahydronaphthalen-2-ol]
ESR1 levels in tumor extracts (immunoblot) (MCF7 xenograft tumors; 0.3-10 mg/kg): dose-dependent downregulation | final tumor size (MCF7 xenograft tumors; 1 or 3 mg/kg groups): significantly increased | tumor growth after estrogen withdrawal (MCF7 xenograft tumors; 1 or 3 mg/kg sc daily): significant stimulation of tumor growth | expression of AGR2 in tumors (MCF7 xenograft tumors; 1 or 3 mg/kg treatment groups): observed | expression of classical ESR1 target genes such as PGR in tumors (MCF7 xenograft tumors; 1 or 3 mg/kg treatment groups): not observed | tumor growth after estrogen withdrawal (MCF7 xenograft tumors; higher dose (10 mg/kg) sc daily): not apparent at the higher dose | uterine wet weight at sacrifice (MCF7 xenograft tumors; nu/nu mice, 0.3-10 mg/kg sc daily): stimulation of uterine weight was apparent in mice treated with only the 0.3 mg/kg dose | regulation of ER transactivation of target genes AGR2 and KCNK6 (ESR1 target genes; RAD1901 0-1 μM, presence or absence of 17β-estradiol 1 nM): dose dependent agonist/antagonist regulation | expression pattern of ESR1 target genes (agonist-, SERM-, SERM/agonist-responsive) (ESR1 target genes; RAD1901 10^-9-10^-6 M): biphasic response
